According to patent publication US20230218631A1 (priority 2020, published 2023):

Test system: EHMT2/G9A, H3K9me2
[1] = 4-week CIE vs Air, same animals, FIG. 1C

CCO [ethanol]
EHMT2/G9A in dorsal striatum [1]: no changes
H3K9me2 in dorsal striatum [1]: no changes
reduction of H3K9me2 levels in NAc (4-week CIE vs Air, FIG. 1B): ~40%
total histone H3 protein in NAc (4-week CIE vs Air, FIG. 1B): no changes
reduction in NAc EHMT2/G9A protein levels (4 weeks CIE vs Air, immunoblot, FIG. 1B): > 30%
